“Also recorded” adds a separate entry of the source. Like-named read-outs stand apart in the source and are kept apart here.
Key:
[1] = test system: F9 cells; assay: Priming of [3H]GlcN-labeled oligosaccharides in F9 cells; assay type: cell-based, mouse; details: for Priming of oligosaccharides (in words) / Priming: F9 cells; for Priming of oligosaccharides (in words): [3H]GlcN; for Priming: Table I, per μg cell protein, control value (30) subtracted; for Fraction of labeled oligosaccharides that were charged (bound to QAE-Sephadex): anion-exchange chromatography
[2] = test system: HL-60 adhesion to activated human umbilical vein endothelial cells (HUVEC); assay: Adhesion of HL-60 cells to TNF-α-activated HUVEC; assay type: cell-based; details: for Inhibition of HL-60 / leukocyte adhesion (in words): TNF-α-treated HUVEC, concentration not given
[3] = test system: sLe^x on HL-60 cells; assay: FACS of sLe^x expression on HL-60 cells with mAb CSLEX-1; assay type: cell-based, human; details: for Inhibition of sialyl Lewis X formation in HL-60 cells (in words): concentration not given
[4] = test system: F9 cells; assay: Uptake of disaccharides by F9 cells, fluorescence assay; assay type: in vitro ADME, mouse; details: for Uptake: Table I, control value without glycoside (1.0) subtracted
[5] = test system: Chinese hamster ovary cells; assay: Uptake of glycosides by Chinese hamster ovary cells, fluorescence assay; details: for Uptake (in words): CHO cells, 37° C., FIG. 1 and 2 (100 μM in FIG. 2); for Uptake: relative to Xylβ-0-2-naphthol 1.0 unit
Description: Confluent monolayers of Chinese hamster ovary cells were incubated with the indicated concentrations of Xylβ-0-2-naphthol at 37° C. for 30 minutes. The amount of glycoside taken up was determined by fluorescence assay.
The various glycosides were added (100 μM) to confluent Chinese hamster ovary cell monolayers and at the times indicated, the amount of glycoside taken up was quantitated by fluorescence assay. Filled circles: Xylβ-0-2-naphthol; filled square: Galβ-0-2-naphthol; unfilled triangle: Galβ1→4Xylβ-0-2-naphthol; filled triangle: Galβ1 →3Galβ0-2-naphthol.
Compounds were dissolved in DMSO and added to growth medium such that the final concentration of vehicle was 0.5% (v/v). Confluent cells were incubated with supplemented growth medium at 37° C. for various times. The cultures were placed on ice, the medium was aspirated and the cells were washed three times with cold PBS containing 1 mg/ml of bovine serum albumin. Cells were solubilized in a small volume of 0.1M NaOH and the extracts were neutralized with one mole equivalent of acetic acid. After centrifuging the samples, the supernatants were applied to Sep-Pak Plus C18 cartridges (Waters Associates) and washed with water (10 ml) and 20% (v/v) methanol in water (5 ml). Bound material was eluted with 5 ml of 40% (v/v) methanol in water and concentrated to dryness. The residue was dissolved in methanol and its fluoresence was measured (SLM-Aminco Instruments). The excitation and emission wavelengths for 2-naphthol derivatives were 293 nm and 395 nm, respectively. Phenanthrol derivatives were excited at 310 nm and the emission was measured at 365 nm.
Animal cells take up β-D-xylosides and prime glycosaminoglycan chains with great efficiency. For priming to occur, the glycoside must pass though the plasma membrane and enter the Golgi where the glycosyltransferases reside. […] Xylβ-0-2-naphthol has three hydroxyl groups, whereas Gal-0-2-naphtholhas four.

[6] = test system: pgsA-745 cells (xylosyltransferase deficient Chinese hamster ovary cells); assay: Priming of [35S]glycosaminoglycan chains in xylosyltransferase-deficient CHO mutant pgsA-745 cells; assay type: cell-based; details: FIG. 3, 5 hours at 37° C.; for Priming of glycosaminoglycan chains (in words): up to 500 μM; for minimal effective concentration: Cricetulus griseus, read-out: Concentration at which glycosaminoglycan chains are primed
Description: Various compounds at the indicated concentrations were provided to confluent Chinese hamster ovary cells in a 96 well plate. Glycosaminoglycan synthesis was measured by autoradiography of [^35 S]-glycosaminoglycan collected on a postively charged nylon membrane. 1: Xylβ-0-2-naphthol; 2: Xylβ1→6Gal-0-2-naphthol; 3: Xylβ1→6Gal(Me)-0-2-naphthol; 4: Xylβ1→6Gal(Me)2 -0-2-naphthol; 5: Xylβ1→6Gal(Me)3 -0-2-naphthol; 6: Xyl(Ac)3 β-0-2-naphthol; 7:Xyl(Ac)3 β1→6Gal(Ac)3 -0-2-naphthol.
Priming of glycosaminoglycan chains was measured in pgsA-745 cells deficient in xylosyltransfersase. The cells were grown to confluence in 96-well microtiter plates (Falcon). Fresh medium (0.2 ml) containing 50 μCi/ml of H2^35 SO4 (25-40 Ci/mg) and the test compounds were added to the wells. The top row of wells contained […] of glycoside and each subsequent row contained a serial dilution (1:3^n, v/v). Cells were incubated for 5 hours at 37° C. and solubilized by adding 20 μl of 0.5M NaOH. The individual wells were adjusted to 0.2% (w/v) Zwittergent 3-12, 25 μg/ml chondroitin sulfate, 0.2M acetic acid and 10 mM Na2 SO4. The samples were transferred to a GeneScreen Plus membrane (Dupont-NEN) placed on top of a piece of 1Chr paper on a vacuum Minifold (Schleicher & Schuell). A wash solution of 0.2% (w/v) Zwittergent 3-12, 0.2M acetic acid and 10 mM Na2 SO4 (0.5 ml) was passed through each well. The membranes were removed from the Minifold, soaked for 5 minutes in 20 ml of wash solution, air-dried and exposed to RX X-ray film for 10-18 hours.
Therefore, uptake of the disaccharide was measured indirectly by the determining the incorporation of ^35 SO4 into glycosaminoglycan chains. To distinguish glycosaminoglycans produced on the glycoside from those made on endogenous proteoglycans, a Chinese hamster ovary cell mutant deficient in xylosyltransferase was made. […] [^35 S]glycosaminoglycan synthesis was measured by incubating mutant cells in a 96 well plate with glycoside derivatives at different doses. The cells and spent media were then transferred to a positively charged nylon membrane to detect newly made chains by autoradiography.

[7] = test system: basic fibroblast growth factor; details: background; cited from earlier work
[8] = listed as peracetylated Galβ1→4GlcNAcβ-0-2-naphthalenemethanol
[9] = listed as acetylated Galβ1→4GlcNAcβ-0-2-naphthalenemethanol

CC(=O)N[C@H]1[C@H](O[C@H]2[C@@H](OC(C)=O)[C@@H](COC(C)=O)O[C@@H](OCc3ccc4ccccc4c3)[C@@H]2OC(C)=O)O[C@H](COC(C)=O)[C@@H](OC(C)=O)[C@@H]1OC(C)=O [AcGlcNAcGal-NM, Peracetylated GlcNAcβ1-3Galβ-0-naphthalenemethanol]
Fold [3H]GlcN-labeled oligosaccharides primed compared with AcLacNAc-NM ([1]; >25 μM): ~10 -fold
Priming of oligosaccharides (in words) [1]: much more active than AcLacNAc-NM at low dose
Priming of oligosaccharides (in words) ([1]; listed as Acetylated GlcNAcβ1→3Galβ-O-naphthalenemethanol): primes oligosaccharides and inhibits cell adhesion more efficiently than acetylated Galβ1→4GlcNAcβ-X-naphthalenemethanol
Priming of oligosaccharides (in words) ([1]; listed as acetylated GlcNAcβ1→3Galβ-O-naphthalenemethanol): prime oligosaccharides in cultured cells
Inhibition of HL-60 / leukocyte adhesion (in words) [2]: inhibits cell adhesion more efficiently than acetylated Galβ1→4GlcNAcβ-X-naphthalenemethanol
Inhibition of sialyl Lewis X formation in HL-60 cells (in words) [3]: inhibit the formation of sialyl Lewis X

CC(=O)N[C@H]1[C@H](OCc2ccc3ccccc3c2)O[C@H](COC(C)=O)[C@@H](O[C@@H]2O[C@H](COC(C)=O)[C@H](OC(C)=O)[C@H](OC(C)=O)[C@H]2OC(C)=O)[C@@H]1OC(C)=O [AcLacNAc-NM, acetylated Galβ1→4GlcNAcβ-O-naphthalenemethanol]
Priming of oligosaccharides (in words) [1]: primed oligosaccharides in F9 cells; also recorded: A significant lag phase preceded priming of oligosaccharides
Priming of oligosaccharides (in words) ([1]; listed as acetylated Galβ1→4GlcNAcβ-O-naphthalenemethanol): prime oligosaccharides in cultured cells
Priming of oligosaccharides (in words) [1, 8]: A large amount of labeled material was generated
Priming [1]: 250 ^3 H-cpm/μg
Fraction of labeled oligosaccharides that were charged (bound to QAE-Sephadex) [1]: About 25%
Fraction of labeled oligosaccharides that were charged (bound to QAE-Sephadex) [1, 8]: approximately 25%
Fold reduction in attached HL-60 cells ([2]; 100 μM AcLacNAc-NM, TNF-α HUVEC, static): 8 -fold
Inhibition of HL-60 / leukocyte adhesion (in words) [2]: reduced adhesion
Inhibition of HL-60 / leukocyte adhesion (in words) [2, 9]: The decrease in sLe^x expression had a corresponding effect on cell adhesion
Uptake (in words) [4]: nearly as well as non-acetylated pentosides linked to naphthol
Uptake [4]: 6.4 Arbitray units
Uptake (in words) [4, 8]: nearly as efficient as Xylβ-0-napthol
sLe^x expression on the cell surface, FACS (in words) ([3]; 200 μM acetylated sugars, 40 hours / two days, mAb CSLEX-1): the cell population shifted to a lower mean fluorescence
Inhibition of sialyl Lewis X formation in HL-60 cells (in words) [3]: inhibit the formation of sialyl Lewis X
Inhibition of sialyl Lewis X formation in HL-60 cells (in words) [3, 9]: inhibition of sLe^x expression on the surface of HL-60 cells

OC[C@H]1O[C@@H](O[C@H]2[C@@H](O)[C@@H](CO)O[C@@H](Oc3ccc4ccccc4c3)[C@@H]2O)[C@H](O)[C@@H](O)[C@H]1O [Galβ1→3Galβ-0-2-naphthol]
Uptake (in words) [5]: not taken up al all

OC[C@H]1O[C@@H](O[C@H]2[C@@H](O)[C@@H](CO)O[C@@H](Oc3cc4ccccc4c4ccccc34)[C@@H]2O)[C@H](O)[C@@H](O)[C@H]1O [Galβ1→3Galβ-0-9-phenanthrol]
Uptake [5]: less than 0.1 unit of fluorescence

CC(=O)N[C@H]1[C@H](OCc2ccc3ccccc3c2)O[C@H](CO)[C@@H](O[C@@H]2O[C@H](CO)[C@H](O)[C@H](O)[C@H]2O)[C@@H]1O [Galβ1→4GlcNAcβ-0-naphthalenemethanol, Galβ1→4GlcNAcβ-0-2-naphthalenemethanol]
Priming of oligosaccharides (in words) [1]: increases with time and does not saturate for several hours
Priming [1]: 20 ^3 H-cpm/μg
Uptake (in words) [4]: very limited
Uptake [4]: 0.5 Arbitray units

OC[C@H]1O[C@@H](O[C@@H]2CO[C@@H](Oc3ccc4ccccc4c3)[C@H](O)[C@H]2O)[C@H](O)[C@@H](O)[C@H]1O [Galβ1→4Xylβ-0-2-naphthol]
Uptake (in words) [5]: not taken up al all

OC[C@H]1O[C@@H](Oc2ccc3ccccc3c2)[C@H](O)[C@@H](O)[C@H]1O [Galβ-0-2-naphthol]
Uptake (in words) [5]: slow and reached a lower steady-state level
Uptake [5]: 0.3 unit of fluorescence

OC[C@H]1O[C@@H](Oc2cc3ccccc3c3ccccc23)[C@H](O)[C@@H](O)[C@H]1O [Galβ-0-9-phenanthrol]
Uptake [5]: 4.2 unit of fluorescence

O[C@@H]1[C@@H](O)[C@@H](Oc2ccc3ccccc3c2)OC[C@@H]1O [L-Araβ-0-2-naphthol, L-Araα-0-2-naphthol]
Uptake (in words) [5]: diffuse more readily than hexosides
Uptake [5]: 0.8 unit of fluorescence

CC(=O)O[C@@H]1[C@@H](OC(C)=O)[C@H](Oc2ccc3ccccc3c2)OC[C@H]1OC(C)=O [Xyl(Ac)3 β-0-2-naphthol]
Priming of glycosaminoglycan chains (in words) [6]: somewhat less effectively than the non-acetylated compound

CO[C@H]1[C@@H](OC)[C@@H](CO[C@@H]2OC[C@@H](O)[C@H](O)[C@H]2O)O[C@@H](Oc2ccc3ccccc3c2)[C@@H]1OC [Xylβ1→6Gal(Me)3-0-2-naphthol]
minimal effective concentration [6]: < 1 µM
Priming of glycosaminoglycan chains (in words) [6]: nearly as well as Xylβ-0-2-napthol

O[C@H]1[C@@H](O)[C@@H](CO[C@@H]2OC[C@@H](O)[C@H](O)[C@H]2O)O[C@@H](Oc2ccc3ccccc3c2)[C@@H]1O [Xylβ1→6Galβ-0-2-naphthol]
Priming of glycosaminoglycan chains (in words) [6]: did not prime [^35 S]-glycosaminoglycans even at 500 μM

O[C@@H]1[C@@H](O)[C@H](Oc2ccc3ccccc3c2)OC[C@H]1O [Xylβ-0-2-naphthol]
Priming of glycosaminoglycan chains (in words) [6]: primed chains efficiently
Uptake [4]: 9.0 Arbitray units
Binding of primed heparan sulfate chains to basic fibroblast growth factor (in words) [7]: will bind to basic fibroblast growth factor
Uptake (in words) [5]: diffuse more readily than hexosides; also recorded: occurs by diffusion; also recorded: depended on concentration and did not saturate
Time for uptake to reach a plateau ([5]; FIG. 2, 100 μM): less than one minute
Uptake [5]: 1.0 unit of fluorescence

CC(=O)O[C@H]1[C@@H](OC(C)=O)[C@@H](CO[C@@H]2OC[C@@H](OC(C)=O)[C@H](OC(C)=O)[C@H]2OC(C)=O)O[C@@H](Oc2ccc3ccccc3c2)[C@@H]1OC(C)=O [peracetylated Xylβ1→6Galβ-0-2-naphthol, Xyl(Ac)3 β1→6Gal(Ac)3-0-2-naphthol]
minimal effective concentration [6]: ~6 µM

Xylβ1→6Gal(Me)2 -0-2-naphthol
Concentration at which glycosaminoglycan chains are primed [6]: 2 to 6 µM

Xylβ1→6Gal(Me)-0-2-naphthol
Concentration of maximum effect on 35S-glycosaminoglycan synthesis [6]: approximately 60 μM
Priming of glycosaminoglycan chains (in words) [6]: Higher concentrations were less effective
